Data on twelve compounds can be found in US12029739B2, “SHP2 inhibitor and use thereof” (KANAPH THERAPEUTICS INC., priority 2021, dated 2024).

Where two headings read alike, the source gives them in different places. Where only a bound is given, the exact number is not on record here.

Test [1] relates to phospho-ERK in MIA PaCa2 or H358 cells. Nature of the test: Phospho-ERK assay (AlphaLisa). The following applies: MIA PaCa2 or H358 cells, compound incubated 1.5 hours, read-out: IC50 (p-ERK). Type of test: cell-based. (In general: Bead proximity is the source of the signal in Alpha formats.)
The target of another test is T1, SHP2 (full length) (Homo sapiens, UniProt Q06124).
T1 construct: SHP2 (full length, diluted to 100 pM final concentration in reaction buffer, BPS bioscience, US); purchased BPS bioscience, US
T1 sequence (Q06124 1-593): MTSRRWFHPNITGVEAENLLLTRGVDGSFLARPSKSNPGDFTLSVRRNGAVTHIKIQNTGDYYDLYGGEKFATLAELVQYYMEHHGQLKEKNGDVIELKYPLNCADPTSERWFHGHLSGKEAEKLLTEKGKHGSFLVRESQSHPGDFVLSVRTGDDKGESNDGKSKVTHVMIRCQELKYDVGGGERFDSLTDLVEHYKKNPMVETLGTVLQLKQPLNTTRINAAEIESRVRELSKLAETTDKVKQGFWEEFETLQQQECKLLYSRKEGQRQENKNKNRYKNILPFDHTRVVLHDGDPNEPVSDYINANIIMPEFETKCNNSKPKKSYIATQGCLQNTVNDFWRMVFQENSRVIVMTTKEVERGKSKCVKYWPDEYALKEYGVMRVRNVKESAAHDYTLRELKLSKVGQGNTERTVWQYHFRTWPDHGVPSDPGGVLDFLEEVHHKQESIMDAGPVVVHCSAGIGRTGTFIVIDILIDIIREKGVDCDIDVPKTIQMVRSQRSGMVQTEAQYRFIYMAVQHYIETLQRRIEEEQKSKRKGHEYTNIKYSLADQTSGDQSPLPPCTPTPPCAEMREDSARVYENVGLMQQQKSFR
Nature of the test: Phosphatase assay (PTPase assay) with DiFMUP substrate. Conditions: SHP2 activated with SHP2 activating peptide; DiFMUP 80 μM, 2 hours; fluorescence; read-out: IC50 (PTPase aS say). It counts as biochemical.

One may read the IC50 as the concentration needed to halve the response being measured. Take `N[C@@H]1c2cccnc2CC12CCN(c1cnc(Sc3ccc4ncn(Cc5ccccc5)c(=O)c4c3Cl)cn1)CC2` [Example 102, (S)-6-((5-(5-amino-5,7-dihydrospiro[yclopenta[b]pyridine-6,4′-piperidin]-1′-yl)pyrazin-2-yl)thio)-3-benzyl-5-chloroquinazolin-4(3H)-one]: the concentration for half-maximal inhibition (IC50) was under 45 nM in test [1] (1.5 h) and under 3 nM at SHP2 (full length).
Turning to `N[C@@H]1c2ccccc2CC12CCN(c1cnc(Sc3ccc4ncn(CC5CCOC5)c(=O)c4c3Cl)cn1)CC2` (stereo partly drawn) [Example 103, 6-((5-((S)-1-amino-1,3-dihydrospiro[indene-2,4′-piperidin]-1′-yl]pyrazin-2-yl]thio)-5-chloro-3-((tetrahydrofuran-3-yl)methyl)quinazolin-4(3H)-one], the IC50 is under 45 nM in test [1] (1.5 h) and under 3 nM at SHP2 (full length).
With `N[C@H]1c2ccccc2CC12CCN(c1cnc(Sc3ccc4ncn(CC5CCOC5)c(=O)c4c3Cl)cn1)CC2` (stereo partly drawn) [Example 104, 6-((5-((R)-1-amino-1,3-dihydrospiro(indene-2,4′-piperidin]-1′-yl]pyrazin-2-yl]thio)-5-chloro-3-((tetrahydrofuran-3-yl)methyl)quinazolin-4(3H)-one], the IC50 in test [1] (1.5 h) is under 45 nM; at SHP2 (full length) it was under 3 nM.
As for `N[C@@H]1c2cccnc2CC12CCN(c1cnc(Sc3ccc4ncn(Cc5cccnc5)c(=O)c4c3Cl)cn1)CC2` [Example 105, (S)-6-((5-(5-amino-5,7-dihydrospiro[yclopenta[b]pyridine-6,4′-piperidin]-1′-yl)pyrazin-2-yl)thio)-5-chloro-(3-pyridin-3-ylmethyl)quinazolin-4(3H)-one], the IC50 in test [1] (1.5 h) was under 45 nM; at SHP2 (full length), under 3 nM.
Turning to `N[C@H]1c2cccnc2CC12CCN(c1cnc(Sc3ccc4ncn(Cc5cccnc5)c(=O)c4c3Cl)cn1)CC2` [Example 106, (R)-6-((5-(5-amino-5,7-dihydrospiro[yclopenta[b]pyridine-6,4′-piperidin]-1′-yl)pyrazin-2-yl)thio)-5-chloro-(3-pyridin-3-ylmethyl)quinazolin-4(3H)-one], the IC50 lay in the range of 45 to 1500 nM in test [1] (1.5 h) and 3 to 100 nM at SHP2 (full length).
In the case of `N[C@@H]1c2cccnc2CC12CCN(c1cnc(Sc3ccc4ncn(CC5CCOC5)c(=O)c4c3Cl)cn1)CC2` (stereo partly drawn) [Example 107, 6-((5-((S)-5-amino-5,7-dihydrospiro[yclopenta[b]pyridine-6,4′-piperidin]-1′-yl)pyrazin-2-yl]thio)-5-chloro-3-((tetrahydrofuran-3-yl)methyl)quinazolin-4(3H)-one], the IC50 in test [1] (1.5 h) is under 45 nM; at SHP2 (full length), under 3 nM.
On the same counts, the results for `COCCn1cnc2ccc(Sc3cnc(N4CCC5(CC4)Cc4ncccc4[C@H]5N)cn3)c(Cl)c2c1=O` [Example 108] are 45 to 1500 nM and 3 to 100 nM.
For `N[C@@H]1c2cccnc2CC12CCN(c1cnc(Sc3ccc4ncn(CCCO)c(=O)c4c3Cl)cn1)CC2` [Example 109], the IC50 in test [1] (1.5 h) is under 45 nM; at SHP2 (full length) it was under 3 nM.
On to `N[C@@H]1c2cccnc2CC12CCN(c1cnc(Sc3ccc4ncn(CCCF)c(=O)c4c3Cl)cn1)CC2` [Example 110], for which the IC50 in test [1] (1.5 h) is under 45 nM; at SHP2 (full length), under 3 nM.
`CC(O)CCn1cnc2ccc(Sc3cnc(N4CCC5(CC4)Cc4ncccc4[C@H]5N)cn3)c(Cl)c2c1=O` (stereo partly drawn) [Example 111, (6-((5-((S)-5-amino-5,7-dihydrospiro[yclopenta[b]pyridine]-6,4′-piperidin]-1′-yl)pyrazin-2-yl]thio)-5-chloro-3-(3-hydroxybutyl)quinazolin-4(3H)-one]: the IC50 was under 45 nM in test [1] (1.5 h) and under 3 nM on SHP2 (full length).
In the case of `CC(=O)Cn1cnc2ccc(Sc3cnc(N4CCC5(CC4)Cc4ncccc4[C@H]5N)cn3)c(Cl)c2c1=O` [Example 112], the IC50 was under 45 nM in test [1] and under 3 nM on SHP2 (full length).
For the compound `C[C@@H]1OCC2(CCN(c3cnc(Sc4ccc5ncn(CCC(F)(F)F)c(=O)c5c4Cl)cn3)CC2)[C@@H]1N` [Example 113], the IC50 in test [1] (1.5 h) is under 45 nM; on SHP2 (full length) it was under 3 nM.
